Experimental data: ChEMBL document CHEMBL3232913, “Structural basis for the identification of the N-terminal domain of coronavirus nucleocapsid protein as an antiviral target” (2014)
Activity calls are given as the source filed them. The rule behind the calls is not given here.

Key:
[1] = test system: Human coronavirus OC43; test: Inhibition of Human coronavirus OC43 replication infected in human 293T cells assessed as M mRNA level at 10 uM by RT-PCR analysis (reference value: 0.32 no unit); format: functional
[2] = target: T1, Nucleoprotein (Human coronavirus OC43) (UniProt P33469); test: Inhibition of human coronavirus OC43 nucleocapsid protein expressed in Escherichia coli BL21(DE3) assessed as reduction of RNA-binding capacity by surface plasmon resonance analysis relative to control; settings: concentration not given here
T1 sequence (whole entry): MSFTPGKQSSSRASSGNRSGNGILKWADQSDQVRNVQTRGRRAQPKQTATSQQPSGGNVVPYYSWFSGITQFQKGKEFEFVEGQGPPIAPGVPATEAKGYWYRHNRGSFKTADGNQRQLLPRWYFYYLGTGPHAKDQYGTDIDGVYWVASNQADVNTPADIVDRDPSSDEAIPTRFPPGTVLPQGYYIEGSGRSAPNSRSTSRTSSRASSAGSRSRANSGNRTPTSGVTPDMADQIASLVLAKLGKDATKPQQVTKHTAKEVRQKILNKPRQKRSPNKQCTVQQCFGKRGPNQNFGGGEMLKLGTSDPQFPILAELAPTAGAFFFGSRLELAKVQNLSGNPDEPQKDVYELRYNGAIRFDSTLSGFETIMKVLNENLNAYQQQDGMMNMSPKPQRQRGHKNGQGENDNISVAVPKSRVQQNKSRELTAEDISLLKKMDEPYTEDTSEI

[3] = test system: Human coronavirus OC43; test: Inhibition of Human coronavirus OC43 replication infected in human 293T cells transfected with wild-type HCoV-OC43 N protein assessed as M mRNA level at 10 uM by RT-PCR analysis (reference value: 2.41 no unit); format: functional
[4] = target: T1, Nucleoprotein (Human coronavirus OC43); settings: 10 uM
Description: Inhibition of human coronavirus OC43 nucleocapsid protein expressed in Escherichia coli BL21(DE3) assessed as reduction of RNA-binding capacity by measuring resonance unit at 10 uM by surface plasmon resonance analysis relative to control

Structure (SMILES) | fold change (FC) [1] | inhibition [2] [%] | fold change (FC) [3] | inhibition [4]
O=C1C(Cl)=C(NCCN2CCOCC2)C(=O)c2ncccc21 | 0.22 | > 10 | 2.46 | 
CN(C)CC(=O)Nc1ccc2[nH]c(=O)c3ccccc3c2c1.Cl [PJ34] | 0.11 | > 10 | 0.65 | Active
